This is an account of results in patent US20160069887A1, “BIOMARKERS FOR PROGNOSIS” (ISIS INNOVATION LIMITED, priority 2013, published 2016).

Where a SMILES comes first, the peptide text is derived from it. The star is where a group is joined. Cbz = O=C(OCc1ccccc1)*

In assay [1] the test system is patients after potentially-curative surgery for stage II/III colorectal cancer. Conditions: 1167 rofecoxib patients; median follow-up 4.84 years; cited from earlier work.
Assay [2] deals with Flag-HDAC6 stable inducible cell line. Nature of the assay: Immunoblot of endogenous HR23B and cleaved caspase 3 upon induction of Flag-HDAC6. Conditions: for HDAC6-dependent down-regulation of HR23B: Dox-induced Flag-HDAC6, 3MA 5 and 10 mM, 17-AAG 0.1 or 1 μM, tubastatin 10 μM, bortezomib 48 hr. In general terms: In western blotting, separated proteins are transferred to a membrane and probed.

Assay [3] concerns U2OS cells. Nature of the assay: Immunoblot for apoptosis (PARP) and autophagy (LC3 cleavage). The class given is cell-based. Conditions: co-treatment SAHA and 3-methyladenine (10 mM) for 18 hr.
The subject of assay [4] is HUT78, MYLA (CTCL), A2058, A375 (melanoma), HCT116 and HCT15 (CRC). Nature of the assay: Immunoblot of autophagy markers and HR23B in tumour cell lines treated with HDAC inhibitors. Type of assay: cell-based. As to conditions: for autophagy markers (LC3 cleavage, LAMP1, cathepsin D): immunoblot after 18 hr or 24 hr treatment.
In assay [5] the test system is U2OS cells. Briefly: Global ubiquitination (His6-ubiquitin, Ni2+ pull-down, anti-His immunoblot). The class given is cell-based. Conditions: for global ubiquitination, SAHA and MG132 combined: SAHA 5 μM 20 hr and MG132 20 μM 4 hr. As for the experimental part: Cell lysates and Ni^2+ pull-down eluates were analyzed by immunoblotting with anti-His as described. The input HR23B is shown underneath, together with actin levels.
Ni^2+ pull-down eluates were analyzed by immunoblotting with anti-His. The input HR23B level is shown underneath, together with actin levels.
Transfected cells in a 10 cm dish were washed twice with ice-cold PBS and harvested into 1 ml of 8M urea, 0.1 M Na2HPO4/NaH2PO4, 0.01M Tris-HCl, and pH8.0. Lysates were sheared by taking through 23 gauge needle to reduce viscosity. Protein concentration was measured with Bradford (Bio-Rad) and normalised. About 100 μl of lysate was mixed with 4×SDS loading buffer for input. Then 900 μl of lysate was incubated with 70 μl of a 50% slurry of nickel (Ni^2+-NTA)-agarose beads (Qiagen), 5 mM imidazole and 10 mM β-mercaptoethanol overnight at 4° C. The beads were collected by 1 min centrifugation at 8,000 rpm and washed with 750 μl of the following buffers with 5 min mixing at room temperature for each washing step: twice with 8M urea, 0.1M Na2HPO4/NaH2PO4, 0.01 M Tris-HCl, pH 8.0, 10 mM β-mercaptoethanol and 0.1% Triton X-100; three times with 8M urea, 0.1M Na2HPO4/NaH2PO4, 0.01M Tris-HCl, pH 6.3, 10 mM β-mercaptoethanol and 0.1% Triton X-100. The bound proteins were then eluted with 100 μl of elution buffer (200 mM imidazole, 5% SDS, 150 mM Tris-HCl pH6.8, 30% glycerol, 720 mM β-mercaptoethanol, 0.005% bromophenol blue) for 30 min incubation followed by 10 min spin at 13,000 rpm. Samples were heated to 95° C. for 5 min, cooled, and a typical volume of 30 μl loaded on each lane for immunoblot analysis.

For assay [6], the system named is U2OS cells. Nature of the assay: Visualisation of autophagosomes by anti-LC3 immunostaining. The class given is cell-based. The method, then: Counter-stain with DAPI was superimposed for each image.
Cells seeded onto coverslips were washed in PBS and fixed in 3.7% formaldehyde for 15 min. Cells were permeabilised in PBS containing 0.5% Triton X-100 for 5 min and then blocked in 5% FCS/PBS for 30 min at room temperature before incubation with primary antibody as indicted. Coverslips were washed in PBS containing 0.05% Tween-20 and incubated with corresponding secondary antibodies for 30 min at room temperature. Alexa Fluro 488 (green fluorescence) or Alexa Fluor 594 (red fluorescence) (Molecular Probes). Finally coverslips were washed extensively in PBS containing 0.05% Tween-20 and mounted onto microscope slides using Vectashield containing DAPI (Vector Laboratories).

For assay [7], the target named is T1, Flag-HDAC6 (wild-type, full length, ectopic) (human, UniProt Q9UBN7 1-1215).
T1 construct: Expressed by transfection or by doxycycline induction in U2OS cells; also called pcDNA-Flag-HDAC6; WT HDAC6; not shown: Flag tag
T1 sequence: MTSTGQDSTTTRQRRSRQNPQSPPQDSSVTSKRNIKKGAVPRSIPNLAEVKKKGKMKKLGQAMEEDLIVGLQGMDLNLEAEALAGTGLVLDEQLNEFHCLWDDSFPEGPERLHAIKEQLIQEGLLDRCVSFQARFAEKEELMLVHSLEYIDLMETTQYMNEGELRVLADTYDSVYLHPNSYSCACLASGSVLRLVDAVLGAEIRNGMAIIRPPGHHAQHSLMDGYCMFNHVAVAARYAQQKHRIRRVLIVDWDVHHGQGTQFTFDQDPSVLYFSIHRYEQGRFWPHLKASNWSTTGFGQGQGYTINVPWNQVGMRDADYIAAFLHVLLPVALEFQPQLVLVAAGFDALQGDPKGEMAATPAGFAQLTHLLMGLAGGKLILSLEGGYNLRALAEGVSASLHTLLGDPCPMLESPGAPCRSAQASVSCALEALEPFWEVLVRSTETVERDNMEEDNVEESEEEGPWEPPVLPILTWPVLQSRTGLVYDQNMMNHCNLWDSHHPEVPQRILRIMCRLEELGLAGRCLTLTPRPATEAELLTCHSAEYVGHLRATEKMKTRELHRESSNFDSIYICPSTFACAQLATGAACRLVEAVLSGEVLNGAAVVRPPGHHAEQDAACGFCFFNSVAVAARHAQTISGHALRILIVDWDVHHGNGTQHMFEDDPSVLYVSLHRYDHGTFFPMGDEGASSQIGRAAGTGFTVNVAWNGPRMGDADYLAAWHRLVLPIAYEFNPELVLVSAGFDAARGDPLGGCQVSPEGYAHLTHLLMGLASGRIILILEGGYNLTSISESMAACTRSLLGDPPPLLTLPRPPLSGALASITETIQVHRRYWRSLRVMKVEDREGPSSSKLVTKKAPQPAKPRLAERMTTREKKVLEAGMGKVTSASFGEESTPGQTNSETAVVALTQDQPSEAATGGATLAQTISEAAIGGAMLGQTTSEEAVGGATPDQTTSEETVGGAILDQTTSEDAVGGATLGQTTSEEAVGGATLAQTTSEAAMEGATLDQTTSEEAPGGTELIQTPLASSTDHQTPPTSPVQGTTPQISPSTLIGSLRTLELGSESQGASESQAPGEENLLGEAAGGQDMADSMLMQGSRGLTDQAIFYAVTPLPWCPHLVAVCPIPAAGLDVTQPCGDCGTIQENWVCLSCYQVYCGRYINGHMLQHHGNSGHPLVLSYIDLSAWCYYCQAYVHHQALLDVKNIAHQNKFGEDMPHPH
Briefly: anti-Flag co-immunoprecipitation of Flag-HDAC6 from co-transfected U2OS cells, anti-Myc immunoblot.

With `CS(=O)(=O)c1ccc(C2=C(c3ccccc3)C(=O)OC2)cc1` [rofecoxib], in assay [1], the deaths is listed as 241 and the recurrences is 297.
As for `Cn1cnc(N)c2ncnc1-2` [3-MA, 3-methyladenine], in assay [2], the “HDAC6-dependent down-regulation of HR23B” value is “failed to affect down-regulation of HR23B by HDAC6”. Moreover, the level of apoptosis entry with U2OS cells [3] is given as “an enhanced level of apoptosis was apparent”.
For `C=CCNC1=C2C[C@@H](C)C[C@H](OC)[C@H](O)[C@@H](C)/C=C(\C)[C@H](OC(N)=O)[C@@H](OC)/C=C\C=C(/C)C(=O)NC(=CC1=O)C2=O` [17-AAG], in assay [2], the “HDAC6-dependent down-regulation of HR23B” value was “HDAC6 failed to down-regulate HR23B”.
`CCCC(CCC)C(=O)O` [valproic acid, 2-Propylpentanoic acid]: the “autophagy markers (LC3 cleavage, LAMP1, cathepsin D)” value in assay [4] is listed as “resulted in similar effects”.
tubastatin: in assay [2], the “HDAC6-dependent down-regulation of HR23B” value is on record as “did not impact on the HDAC6-dependent down-regulation of HR23B”. The “increase in HR23B upon 17-AAG treatment” value in assay [2] (tubastatin 10 μM together with 17-AAG) is “did prevent the increase in HR23B upon 17-AAG treatment”.
Turning to `CC(C)C[C@@H](C=O)NC(=O)[C@H](CC(C)C)NC(=O)[C@H](CC(C)C)NC(=O)OCc1ccccc1` [MG132] (Cbz-Leu-Leu-Leu-aldehyde), in the assay on U2OS cells [5], the “global ubiquitination, SAHA and MG132 combined” value is given as “even greater level of ubiquitination”. Moreover, the “global ubiquitination, single agent” value in the assay with U2OS cells [5] (SAHA 5 μM 20 hr or MG132 20 μM 4 hr, vs untreated) was “increase in ubiquitination”.
Consider `O=C(CCCCCCC(=O)Nc1ccccc1)NO` [SAHA, N-hydroxy-N′-phenyloctanediamide], for which, in the assay with U2OS cells [3], the level of apoptosis entry is given as “an enhanced level of apoptosis was apparent”. The “autophagosomes when ectopic HR23B was expressed” value in the assay with U2OS cells [6] (SAHA 10 μM for 18 hr, + vs − doxycycline) was “less evident”. The “visual appearance of autophagosomes” value in the assay with U2OS cells [6] (SAHA 10 and 20 μM) is “visual appearance of autophagosomes in cells”. In assay [4] (at increasing SAHA concentration, coinciding with autophagocytic markers), the “level of HR23B” value is listed as “decreased levels of HR23B”. Moreover, the “autophagy markers (LC3 cleavage, LAMP1, cathepsin D)” value in assay [4] was “caused LC3 cleavage as well as the appearance of LAMP1 and cathepsin D”. Moreover, the “global ubiquitination, SAHA and MG132 combined” value with U2OS cells [5] is listed as “even greater level of ubiquitination”.

B1: HR23B ΔUbL, myc/his tagged (other)
chain: AVSTPAPATTQQSAPASTTAVTSSTTTTVAQAPTPVPALAPTSTPASITPASATASSEPAPASAAKQEKPAEKPAETPVATSPTATDSTSGDSSRSNLFEDATSALVTGQSYENMVTEIMSMGYEREQVIAALRASFNNPDRAVEYLLMGIPGDRESQAVVDPPQAASTGAPQSSAVAAAAATTTATTTTTSSGGHPLEFLRNQPQFQQMRQIIQQNPSLLPALLQQIGRENPQLLQQISQHQEHFIQMLNEPVQEAGGQGGGGGGGSGGIAEAGSGHMNYIQVTPQEKEAIERLKALGFPEGLVIQAYFACEKNENLAANFLLQQNFDED
notes: not shown: myc/his tag from the pcDNA3.1 (+)/Myc-His vector
Turning to B1, the binding result in assay [7] is given as “no binding”.
